Data from US20260109725A1, “MACROLIDE SENOLYTIC COMPOUNDS” (LUNELLA BIOTECH, INC., priority 2022, published 2026).

Legend:
Assay type in all cases: cell-based, human
[1] = system: MRC-5 cells treated with BrdU; assay: xCELLigence assay, BrdU-treated MRC-5 cells; conditions: 50 μM, 5 days after 8 days BrdU, compared to the control
Source text: (§1) Senescent cells undergo the so-called senescence-associated secretory phenotype (SASP), which involves dramatic increases in the synthesis and secretion of proteins. The xCELLigence assay system was used to assess whether protein measurement assays under-estimate the senolytic activity of tested compounds. […] The real-time xCELLigence assay system thus compliments the more static SRB assay, and offers a more direct visualization of the potential senolytic effects of compounds during drug screening.
(§2) The xCELLigence assay was used to confirm senolytic activity for Compound [I]. MRC-5 fibroblasts were used for the assay. […] The data is expressed as the final cell index, the average±the standard error of mean, for the control cells, control cells treated with Compound [I], BrdU-treated control cells, and BrdU-treated fibroblasts subjected to Compound [I] at 50 μM, respectively. The senescent MRC-5 cells were pretreated with BrdU for 8 days to induce senescence, before exposure to Compound [I] for another 5 days. Compared to the control, Compound [I] treatment had no effect on the viability of normal fibroblasts, but killed over 90% of the BrdU-treated fibroblasts.
(§3) xCELLigence Assay System: xCELLigence RTCA System (ACEA Biosciences Inc.). […] This approach allows the quantification of the onset and kinetics of the cellular response. […]

MCF-7 cells = assay: mammosphere formation assay (3D anchorage independent growth)
Description: The compounds disclosed herein may also be used as therapeutic agent to selectively eradicate CSCs for treating and/or preventing tumor recurrence and/or metastasis. […] This assay measures the amount of residual protein that adheres to tissue culture dishes and is a surrogate marker of cell viability.
3D Anchorage Independent Growth Assay: This assay is also referred to as the mammosphere formation assay. A single-cell suspension was prepared using enzymatic, and manual disaggregation (25-g needle). Then, cells were plated at a density of 500 cells/cm^2 in mammosphere medium (DMEM-F12+1X B-27 Plus Supplement+20 ng/ml EGF+Pen/Strep) under non-adherent conditions, in culture dishes pre-coated with (2-hydroxyethylmethacrylate) (poly-HEMA, Sigma Aldrich Inc.), called “mammosphere plates.” Cells were grown for 5 days and maintained in a humidified incubator at 37° C. After 5 days of culture, 3D-mammospheres >50 μm were counted using an eye piece (“graticule”), and the percentage of cells plated which formed spheres was calculated and is referred to as percent mammosphere formation, and was normalized to one (1=100% MFE). 3D mammosphere formation efficiency (MFE) was analyzed in both the ATP-low and ATP-high sub-populations of cells. All 3D mammosphere experiments were performed in triplicate, at least 3 times independently.

[2] = system: control MRC-5 cells (normal lung fibroblasts); assay: SRB assay, control (normal) MRC-5 cells; conditions: 10 μM
Description: For example, in one assay bromodeoxyuridine (5-bromo-2′-deoxyuridine), also known as BrdU, was used to induce senescence in a cell population. BrdU is an analog of the nucleoside thymidine commonly used to identify proliferating cells. BrdU induces controlled DNA damage, and drives cells towards senescence with high efficiency. In the BrdU assay, normal fibroblasts are subjected to prolonged culture (8-days) in the presence of BrdU at 100 μM to induce controlled DNA-damage and senescence. […] Senolytic activity was assessed using the sulforhodamine B assay, also known in the art as the SRB assay. This assay measures the amount of protein remaining attached to the tissue-culture dishes, and is a surrogate marker for cell viability.
FIG. 1 compares SRB assay results for different concentrations of Azithromycin (100 µM and 50 μM) and Compound [I] (100 μM and 50 μM) of the present approach, on both control MRC-5 cells and MRC-5 cells treated with BrdU. […] (labelled as “Azi-Gal” in FIG. 1) for another 5 days. After that, the SRB assay was performed to determine the effects of the drug on cell viability, using normal MRC-5 cells as the control. […] However, at 50 μM Azithromycin had no effect on either the control cells or senescent cells.
BrdU Assay: Cells were plated into 24-well plates. Next day, half of the plate was treated with 100 μM of BrdU while control wells were treated with vehicle only (DMSO) and incubated for 8 days at 37° C. in a 5% CO2 humidified atmosphere. After 8 days of BrdU treatment cells were treated with various test compounds or drugs (e.g., azithromycin, roxithromycin, telithromycin, erythromycin, etc.) for another 3-5 days. BrdU or vehicle treatments were continued during the drug treatments as well.
Sulphorhodamine B assay: After the incubation of the plates cell viability was measured by Sulphorhodamine B assay (SRB). The assay is based on the measurement of cellular protein contents. Cells were fixed with 10% Trichloroacetic acid (TCA) for 1 hour at […], and were dried overnight at room temperature. Then, plates were incubated with SRB for 30 min, washed twice with 1% acetic acid and air dried for at least 1 h. Finally, the protein-bound dye was dissolved in a 10 mM Tris, pH 8.8, solution and read using a plate reader at 540-nm.

control MRC-5 cells = assay: xCELLigence assay, control MRC-5 cells; conditions: 50 μM, 5 days
Source text: as §1, §2, §3

## CC[C@H]1OC(=O)[C@H](C)[C@@H](O[C@@H]2C[C@@](C)(OC)[C@@H](O)[C@H](C)O2)[C@H](C)[C@@H](O[C@@H]2O[C@H](C)C[C@H](N(C)C)[C@H]2OC(=O)OCc2ccc(O[C@@H]3O[C@H](COC(C)=O)[C@H](OC(C)=O)[C@H](OC(C)=O)[C@H]3OC(C)=O)c([N+](=O)[O-])c2)[C@](C)(O)C[C@@H](C)CN(C)[C@H](C)[C@@H](O)[C@]1(C)O [Compound [I], [(2R,3S,4S,5R,6S)-3,4,5-triacetoxy-6-[4-[[(2S,3R,4S,6R)-4-(dimethylamino)-2-[[(2R,3S,4R,5R,8R,10R,11R,12S,13S,14R)-2-ethyl-3,4,10-trihydroxy-13-[(2S,4R,5S,6S)-5-hydroxy-4-methoxy-4,6-dimethyl-tetrahydropyran-2-yl]oxy-3,5,6,8,10,12,14-heptamethyl-15-oxo-1-oxa-6-azacyclopentadec-11-yl]oxy]-6-methyl-tetrahydropyran-3-yl]oxycarbonyloxymethyl]-2-nitro-phenoxy]tetrahydropyran-2-yl]methyl acetate]
[1]
  BrdU-treated fibroblasts killed (xCELLigence final cell index): over 90%
MCF-7 cells; 100 μM
  inhibition of mammosphere formation: nearly complete inhibition
MCF-7 cells; Homo sapiens, MCF7
  IC50: 60 µM
[2]
  effect on control cells (SRB): effective
Control MRC-5 cells
  effect on viability of normal fibroblasts (xCELLigence final cell index): no effect
